Results as given in PubChem BioAssay AID256 (DTP/NCI, 2004).
Several values for one entry are separate records, joined by “and”; a condition that tells them apart may be missing. Equal entries are not always repeated. Inconclusive results and toxic doses are left out.

Test system: CD2F1 mice, L1210 leukemia ip, survival T/C
Assay: NCI In Vivo Anticancer Drug Screen. Data for tumor model L1210 Leukemia (intraperitoneal) in CD2F1 (CDF1) mice
Conditions: higher = longer survival
How it was run: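 Antitumor effect is scored in animals hosting a serially transplanted tumor. Values compare compound-dosed animals against vehicle-only controls as a simple quotient.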

O=NN(CCCl)C(=O)NCCCl
T/C (endpoint: mean survival time, dose: 2.0 mg/kg/injection, schedule: Q01DX009 (ip), vehicle: other): 177 % of control and 293 % of control | T/C (endpoint: mean survival time, dose: 3.75 mg/kg/injection, schedule: Q01DX001 (ip), vehicle: distilled water + alcohol): 115 % of control | T/C (endpoint: mean survival time, dose: 3.75 mg/kg/injection, schedule: Q01DX001 (ip), vehicle: saline + alcohol): 114 % of control | T/C (endpoint: mean survival time, dose: 3.8 mg/kg/injection, schedule: Q01DX001 (ip), vehicle: Klucel (hydroxypropylcellulose) (HPC)): 150 % of control | T/C (endpoint: mean survival time, dose: 4.0 mg/kg/injection, schedule: Q01DX001 (ip), vehicle: saline + alcohol): 113 % of control and 115 % of control | T/C (endpoint: mean survival time, dose: 4.0 mg/kg/injection, schedule: Q01DX009 (ip), vehicle: other): 201 % of control and 255 % of control | T/C (endpoint: mean survival time, dose: 4.0 mg/kg/injection, schedule: Q04DX003 (ip), vehicle: saline + alcohol): 189 % of control | T/C (endpoint: mean survival time, dose: 5.0 mg/kg/injection, schedule: Q01DX001 (ip), vehicle: saline): 113 % of control | T/C (endpoint: mean survival time, dose: 6.25 mg/kg/injection, schedule: Q01DX001 (ip), vehicle: saline + alcohol): 119 % of control and 120 % of control | T/C (endpoint: mean survival time, dose: 7.5 mg/kg/injection, schedule: Q01DX001 (ip), vehicle: Klucel (hydroxypropylcellulose) (HPC)): 164 % of control | T/C (endpoint: mean survival time, dose: 7.5 mg/kg/injection, schedule: Q01DX001 (ip), vehicle: distilled water + alcohol): 123 % of control | T/C (endpoint: mean survival time, dose: 8.0 mg/kg/injection, schedule: Q01DX009 (ip), vehicle: other): 183 % of control | T/C (endpoint: mean survival time, dose: 8.0 mg/kg/injection, schedule: Q04DX003 (ip), vehicle: saline + alcohol): 230 % of control | T/C (endpoint: mean survival time, dose: 9.4 mg/kg/injection, schedule: Q01DX001 (ip), vehicle: saline + alcohol): 156 % of control and 197 % of control | T/C (endpoint: mean survival time, dose: 10.0 mg/kg/injection, schedule: Q01DX001 (ip), vehicle: DMSO): 158 % of control | T/C (endpoint: mean survival time, dose: 12.5 mg/kg/injection, schedule: Q01DX001 (ip), vehicle: saline + alcohol): 152 % of control and 188 % of control and 212 % of control | T/C (endpoint: mean survival time, dose: 14.0 mg/kg/injection, schedule: Q01DX001 (ip), vehicle: saline): 171 % of control | T/C (endpoint: mean survival time, dose: 14.0 mg/kg/injection, schedule: Q07DX003 (ip), vehicle: saline + alcohol): 330 % of control | T/C (endpoint: mean survival time, dose: 14.0 mg/kg/injection, schedule: Q11HX001 (ip), vehicle: saline): 171 % of control | T/C (endpoint: mean survival time, dose: 14.22 mg/kg/injection, schedule: Q01DX001 (ip), vehicle: saline + alcohol): 172 % of control | T/C (endpoint: mean survival time, dose: 15.0 mg/kg/injection, schedule: Q01DX001 (ip), vehicle: Klucel (hydroxypropylcellulose) (HPC)): 332 % of control | T/C (endpoint: mean survival time, dose: 15.0 mg/kg/injection, schedule: Q01DX001 (ip), vehicle: saline): 172 % of control and 248 % of control | T/C (endpoint: mean survival time, dose: 16.0 mg/kg/injection, schedule: Q01DX001 (ip), vehicle: other): 150 % of control | T/C (endpoint: mean survival time, dose: 16.0 mg/kg/injection, schedule: Q04DX003 (ip), vehicle: saline + alcohol): 273 % of control | T/C (endpoint: mean survival time, dose: 18.8 mg/kg/injection, schedule: Q01DX001 (ip), vehicle: saline + alcohol): 319 % of control | T/C (endpoint: mean survival time, dose: 20.0 mg/kg/injection, schedule: Q01DX001 (ip), vehicle: DMSO): 270 % of control | T/C (endpoint: mean survival time, dose: 20.0 mg/kg/injection, schedule: Q01DX001 (ip), vehicle: Klucel (hydroxypropylcellulose) (HPC)): 300 % of control | T/C (endpoint: mean survival time, dose: 20.0 mg/kg/injection, schedule: Q01DX001 (ip), vehicle: other): 169 % of control | T/C (endpoint: mean survival time, dose: 20.0 mg/kg/injection, schedule: Q11HX001 (ip), vehicle: saline): 198 % of control | T/C (endpoint: mean survival time, dose: 21.3 mg/kg/injection, schedule: Q01DX001 (ip), vehicle: saline + alcohol): 248 % of control | T/C (endpoint: mean survival time, dose: 25.0 mg/kg/injection, schedule: Q01DX001 (ip), vehicle: saline + alcohol): 335 % of control | T/C (endpoint: mean survival time, dose: 30.0 mg/kg/injection, schedule: Q01DX001 (ip), vehicle: distilled water + alcohol): 196 % of control | T/C (endpoint: mean survival time, dose: 30.0 mg/kg/injection, schedule: Q01DX001 (ip), vehicle: saline): 232 % of control | T/C (endpoint: mean survival time, dose: 30.0 mg/kg/injection, schedule: Q11HX001 (ip), vehicle: saline): 232 % of control | T/C (endpoint: mean survival time, dose: 32.0 mg/kg/injection, schedule: Q01DX001 (ip), vehicle: other): 246 % of control | T/C (endpoint: mean survival time, dose: 32.0 mg/kg/injection, schedule: Q01DX001 (ip), vehicle: saline): 287 % of control | T/C (endpoint: mean survival time, dose: 33.0 mg/kg/injection, schedule: Q07DX003 (ip), vehicle: saline + alcohol): 323 % of control | T/C (endpoint: mean survival time, dose: 40.0 mg/kg/injection, schedule: Q01DX001 (ip), vehicle: Klucel (hydroxypropylcellulose) (HPC)): 311 % of control | T/C (endpoint: mean survival time, dose: 40.0 mg/kg/injection, schedule: Q01DX001 (ip), vehicle: other): 311 % of control | T/C (endpoint: mean survival time, dose: 45.0 mg/kg/injection, schedule: Q01DX001 (ip), vehicle: saline): 179 % of control | T/C (endpoint: mean survival time, dose: 45.0 mg/kg/injection, schedule: Q11HX001 (ip), vehicle: saline): 180 % of control | T/C (endpoint: mean survival time, dose: 50.0 mg/kg/injection, schedule: Q01DX001 (ip), vehicle: saline + alcohol): 291 % of control | T/C (endpoint: mean survival time, dose: 56.25 mg/kg/injection, schedule: Q01DX001 (ip), vehicle: saline + alcohol): 252 % of control | T/C (endpoint: mean survival time, dose: 60.0 mg/kg/injection, schedule: Q01DX001 (ip), vehicle: distilled water + alcohol): 222 % of control | T/C (endpoint: mean survival time, dose: 80.0 mg/kg/injection, schedule: Q01DX001 (ip), vehicle: saline + alcohol): 168 % of control | T/C (endpoint: median survival time, dose: 0.9 mg/kg/injection, schedule: Q01DX009 (ip), vehicle: saline + alcohol): 116 % of control and 122 % of control | T/C (endpoint: median survival time, dose: 1.75 mg/kg/injection, schedule: Q01DX009 (ip), vehicle: saline + alcohol): 156 % of control | T/C (endpoint: median survival time, dose: 1.8 mg/kg/injection, schedule: Q01DX009 (ip), vehicle: saline + alcohol): 169 % of control | T/C (endpoint: median survival time, dose: 3.0 mg/kg/injection, schedule: Q01DX009 (ip), vehicle: saline + alcohol): 172 % of control | T/C (endpoint: median survival time, dose: 3.5 mg/kg/injection, schedule: Q01DX009 (ip), vehicle: saline + alcohol): 182 % of control and 241 % of control and 246 % of control | T/C (endpoint: median survival time, dose: 5.0 mg/kg/injection, schedule: Q04DX003 (ip), vehicle: saline + alcohol): 152 % of control | T/C (endpoint: median survival time, dose: 6.0 mg/kg/injection, schedule: Q01DX009 (ip), vehicle: saline + alcohol): 256 % of control | T/C (endpoint: median survival time, dose: 7.0 mg/kg/injection, schedule: Q01DX009 (ip), vehicle: saline + alcohol): 218 % of control and 259 % of control | T/C (endpoint: median survival time, dose: 8.0 mg/kg/injection, schedule: Q01DX001 (ip), vehicle: saline + alcohol): 153 % of control | T/C (endpoint: median survival time, dose: 10.0 mg/kg/injection, schedule: Q01DX001 (ip), vehicle: Klucel (hydroxypropylcellulose) (HPC)): 171 % of control and 197 % of control | T/C (endpoint: median survival time, dose: 10.0 mg/kg/injection, schedule: Q01DX001 (ip), vehicle: saline + alcohol): 156 % of control and 178 % of control | T/C (endpoint: median survival time, dose: 10.0 mg/kg/injection, schedule: Q01DX009 (ip), vehicle: saline): 176 % of control | T/C (endpoint: median survival time, dose: 10.0 mg/kg/injection, schedule: Q03DX003 (ip), vehicle: DMSO): 294 % of control | T/C (endpoint: median survival time, dose: 10.0 mg/kg/injection, schedule: Q04DX003 (ip), vehicle: saline + alcohol): 188 % of control | T/C (endpoint: median survival time, dose: 11.5 mg/kg/injection, schedule: Q01DX001 (ip), vehicle: saline + alcohol): 165 % of control | T/C (endpoint: median survival time, dose: 12.0 mg/kg/injection, schedule: Q01DX009 (ip), vehicle: saline + alcohol): 168 % of control | T/C (endpoint: median survival time, dose: 14.0 mg/kg/injection, schedule: Q01DX009 (ip), vehicle: saline + alcohol): 158 % of control and 162 % of control and 185 % of control | T/C (endpoint: median survival time, dose: 14.0 mg/kg/injection, schedule: Q07DX003 (ip), vehicle: saline + alcohol): 273 % of control | T/C (endpoint: median survival time, dose: 14.4 mg/kg/injection, schedule: Q01DX001 (ip), vehicle: saline + alcohol): 152 % of control and 157 % of control | T/C (endpoint: median survival time, dose: 15.0 mg/kg/injection, schedule: Q01DX009 (ip), vehicle: saline): 164 % of control | T/C (endpoint: median survival time, dose: 16.0 mg/kg/injection, schedule: Q01DX001 (ip), vehicle: saline + alcohol): 255 % of control | T/C (endpoint: median survival time, dose: 19.2 mg/kg/injection, schedule: Q01DX001 (ip), vehicle: saline + alcohol): 192 % of control | T/C (endpoint: median survival time, dose: 20.0 mg/kg/injection, schedule: Q01DX001 (ip), vehicle: Klucel (hydroxypropylcellulose) (HPC)): 226 % of control and 234 % of control | T/C (endpoint: median survival time, dose: 24.0 mg/kg/injection, schedule: Q01DX001 (ip), vehicle: saline + alcohol): 152 % of control and 186 % of control | T/C (endpoint: median survival time, dose: 24.0 mg/kg/injection, schedule: Q01DX009 (ip), vehicle: saline + alcohol): 124 % of control | T/C (endpoint: median survival time, dose: 32.0 mg/kg/injection, schedule: Q01DX001 (ip), vehicle: saline + alcohol): 186 % of control | T/C (endpoint: median survival time, dose: 40.0 mg/kg/injection, schedule: Q01DX001 (ip), vehicle: Klucel (hydroxypropylcellulose) (HPC)): 343 % of control | T/C (endpoint: median survival time, dose: 40.0 mg/kg/injection, schedule: Q04DX003 (ip), vehicle: saline + alcohol): 164 % of control | T/C (endpoint: median survival time, dose: 66.7 mg/kg/injection, schedule: Q01DX001 (ip), vehicle: saline + alcohol): 179 % of control and 184 % of control | T/C (endpoint: median survival time, dose: 80.0 mg/kg/injection, schedule: Q01DX001 (ip), vehicle: Klucel (hydroxypropylcellulose) (HPC)): 117 % of control | T/C (endpoint: median survival time, dose: 80.0 mg/kg/injection, schedule: Q01DX001 (ip), vehicle: saline): 123 % of control | T/C (endpoint: median survival time, dose: 160.0 mg/kg/injection, schedule: Q01DX001 (ip), vehicle: Klucel (hydroxypropylcellulose) (HPC)): 168 % of control
